For one test, the target named is T1, ER (Homo sapiens, UniProt P03372).
T1 construct: host or cells: T47D and MCF7 human breast cancer cells
T1 sequence (P03372 1-595): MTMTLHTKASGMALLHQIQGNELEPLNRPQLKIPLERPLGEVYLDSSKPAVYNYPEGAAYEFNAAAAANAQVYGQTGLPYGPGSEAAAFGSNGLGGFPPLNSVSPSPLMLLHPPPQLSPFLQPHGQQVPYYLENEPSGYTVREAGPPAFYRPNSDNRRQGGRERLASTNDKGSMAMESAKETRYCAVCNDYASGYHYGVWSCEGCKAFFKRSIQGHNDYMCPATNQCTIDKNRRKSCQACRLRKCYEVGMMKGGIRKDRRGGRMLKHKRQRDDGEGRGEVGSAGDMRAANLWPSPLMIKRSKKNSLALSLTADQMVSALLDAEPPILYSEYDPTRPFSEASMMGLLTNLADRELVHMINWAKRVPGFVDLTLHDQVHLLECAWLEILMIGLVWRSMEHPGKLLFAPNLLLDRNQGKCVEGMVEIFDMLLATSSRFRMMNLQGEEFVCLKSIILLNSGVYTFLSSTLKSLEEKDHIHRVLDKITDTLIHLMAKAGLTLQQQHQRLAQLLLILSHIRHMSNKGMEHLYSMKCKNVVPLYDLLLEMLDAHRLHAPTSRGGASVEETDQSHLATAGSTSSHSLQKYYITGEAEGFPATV
Put plainly: ER degradation activity, in-cell western blot analysis in T47D cells. Format: cell-based. The note with it: 16 hours, Table A does not say which cell line (T47D or MCF7), read-out: Potency (DC50). An outline of the steps:
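In-cell western, T47D; compounds 16 h, 0.5% DMSO final; anti-rabbit-680/anti-mouse-800 secondaries, 1 h RT, dark; read on CLX imager. ER % vs untreated/DMSO wells (100%).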
In the case of `O=C1CCC(N2C(=O)c3cc4c(cc3C2=O)CN(c2ncc(CN3CC(Oc5ccc([C@@H]6c7ccc(O)cc7CC[C@@H]6c6ccccc6)cc5)C3)cn2)C4)C(=O)N1` (stereo partly drawn) [E327, 2-(2,6-dioxopiperidin-3-yl)-6-(5-((3-(4-((1R,2S)-6-hydroxy-2-phenyl-1,2,3,4-tetrahydronaphthalen-1-yl)phenoxy)azetidin-1-yl)methyl)pyrimidin-2-yl)-6,7-dihydropyrrolo[3,4-f]isoindole-1,3(2H,5H)-dione], the DC50 is greater than 100 nM. Same read-out and setting: as for `O=C1CCC(N2C(=O)c3cc4c(cc3C2=O)CN([C@H]2CC[C@@H](NC3CCN(c5ccc([C@@H]6c7ccc(O)cc7CC[C@@H]6c6ccccc6)cc5)CC3)CC2)C4)C(=O)N1` (stereo partly drawn) [E334, 2-(2,6-dioxopiperidin-3-yl)-6-((1S,4s)-4-((1-(4-((1R,2S)-6-hydroxy-2-phenyl-1,2,3,4-tetrahydronaphthalen-1-yl)phenyl)piperidin-4-yl)amino)cyclohexyl)-6,7-dihydropyrrolo[3,4-f]isoindole-1,3(2H,5H)-dione], the figure is greater than 100 nM. Still for that read-out and setting: in the case of `O=C1CCC(N2C(=O)c3cc4c(cc3C2=O)CN(C2CCN(CC3(F)CN(c5ccc([C@@H]6c7ccc(O)cc7CC[C@@H]6c6ccccc6)cc5)C3)CC2)C4)C(=O)N1` (stereo partly drawn) [E 285, 2-(2,6-dioxopiperidin-3-yl)-6-(1-((3-fluoro-1-(4-((1R,2S)-6-hydroxy-2-phenyl-1,2,3,4-tetrahydronaphthalen-1-yl)phenyl)azetidin-3-yl)methyl)piperidin-4-yl)-6,7-dihydropyrrolo[3,4-f]isoindole-1,3(2H,5H)-dione] it was greater than 100 nM; in that of `O=C1CCC(N2C(=O)c3cc4c(cc3C2=O)CN(CC2CCN(CC3CN(c5ccc([C@@H]6c7ccc(O)cc7CC[C@@H]6c6ccc(F)cc6)cc5)C3)CC2)C4)C(=O)N1` (stereo partly drawn) [E 277, 2-(2,6-dioxopiperidin-3-yl)-6-((1-((1-(4-((1R,2S)-2-(4-fluorophenyl)-6-hydroxy-1,2,3,4-tetrahydronaphthalen-1-yl)phenyl)azetidin-3-yl)methyl)piperidin-4-yl)methyl)-6,7-dihydropyrrolo[3,4-f]isoindole-1,3(2H,5H)-dione], greater than 100 nM. Regarding `C[C@@H]1Cc2c([nH]c3ccccc23)[C@@H](c2cnc(N3CCC(CN4CCC(N5Cc6cc7c(cc6C5)C(=O)N(C5CCC(=O)NC5=O)C7=O)CC4)CC3)nc2)N1CC(F)(F)F` (stereo partly drawn) [E 256, 2-(2,6-dioxopiperidin-3-yl)-6-(1-((1-(5-((1R,3R)-3-methyl-2-(2,2,2-trifluoroethyl)-2,3,4,9-tetrahydro-1H-pyrido[3,4-b]indol-1-yl)pyrimidin-2-yl)piperidin-4-yl)methyl)piperidin-4-yl)-6,7-dihydropyrrolo[3,4-f]isoindole-1,3(2H,5H)-dione], the DC50 lay within 10 to 100 nM.

For `C[C@@H]1Cc2c([nH]c3ccccc23)[C@@H](c2c(F)cc(N3CC4(CCCN(CC(=O)N5Cc6cc7c(cc6C5)C(=O)N(C5CCC(=O)NC5=O)C7)C4)C3)cc2F)N1CC(F)F` (stereo partly drawn) [E 106, 3-(6-(2-(2-(4-((1R,3R)-2-(2,2-difluoroethyl)-3-methyl-2,3,4,9-tetrahydro-1H-pyrido[3,4-b]indol-1-yl)-3,5-difluorophenyl)-2,6-diazaspiro[3.5]nonan-6-yl)acetyl)-1-oxo-3,5,6,7-tetrahydropyrrolo[3,4-f]isoindol-2(1H)-yl)piperidine-2,6-dione], the DC50 lay within 10 to 100 nM. Same read-out and setting: in the case of `O=C1CCC(N2C(=O)c3cc4c(cc3C2=O)CN(C(=O)CN2CCC3(CC2)CCN(c2ccc(C(=C(CCCl)c5ccccc5)c5ccc(O)cc5)cc2)CC3)C4)C(=O)N1` (stereo not shown) [E 195, 6-(2-(9-(4-(4-chloro-1-(4-hydroxyphenyl)-2-phenylbut-1-en-1-yl)phenyl)-3,9-diazaspiro[5.5]undecan-3-yl)acetyl)-2-(2,6-dioxopiperidin-3-yl)-6,7-dihydropyrrolo[3,4-f]isoindole-1,3(2H,5H)-dione] it was 10 to 100 nM; in that of `O=C1CCC(N2C(=O)c3cc4c(cc3C2=O)CN(C(=O)C2CCN(CC3CCN(c5ccc([C@@H]6c7ccc(O)cc7CC[C@@H]6c6ccccc6)cc5)CC3)CC2)C4)C(=O)N1` (stereo partly drawn) [E 205, 2-(2,6-dioxopiperidin-3-yl)-6-(1-((1-(4-((1R,2S)-6-hydroxy-2-phenyl-1,2,3,4-tetrahydronaphthalen-1-yl)phenyl)piperidin-4-yl)methyl)piperidine-4-carbonyl)-6,7-dihydropyrrolo[3,4-f]isoindole-1,3(2H,5H)-dione], greater than 100 nM; in that of `O=C1CCC(N2C(=O)c3cc4c(cc3C2=O)CN([C@H]2CC[C@H](C(=O)N3CC(Nc5ccc([C@H]6c7ccc(O)cc7CC[C@H]6c6ccccc6)cc5)C3)CC2)C4)C(=O)N1` (stereo partly drawn) [E 387, 2-(2,6-dioxopiperidin-3-yl)-6-((1S,4r)-4-(3-((4-((1S,2R)-6-hydroxy-2-phenyl-1,2,3,4-tetrahydronaphthalen-1-yl)phenyl)amino)azetidine-1-carbonyl)cyclohexyl)-6,7-dihydropyrrolo[3,4-f]isoindole-1,3(2H,5H)-dione], less than 10 nM. As for `C[C@@H]1Cc2c([nH]c3ccccc23)[C@H](c2c(F)cc(CN3CCC4(CCC(CN5Cc6cc7c(cc6C5)C(=O)N(C5CCC(=O)NC5=O)C7=O)CC4)CC3)cc2F)N1CC(F)F` (stereo partly drawn) [E 381, 6-((3-(4-((1S,3R)-2-(2,2-difluoroethyl)-3-methyl-2,3,4,9-tetrahydro-1H-pyrido[3,4-b]indol-1-yl)-3,5-difluorobenzyl)-3-azaspiro[5.5]undecan-9-yl)methyl)-2-(2,6-dioxopiperidin-3-yl)-6,7-dihydropyrrolo[3,4-f]isoindole-1,3(2H,5H)-dione], the DC50 is greater than 100 nM.

Staying with this test, now noted: compounds 16 hours, Table A does not say whether T47D or MCF7, read-out: Potency (DC50).
On to `C[C@@H]1Cc2cc(O)ccc2[C@@H](c2c(F)cc(OC3CC4(CCN(C(=O)CN5Cc6cc7c(cc6C5)C(=O)N(C5CCC(=O)NC5=O)C7=O)CC4)C3)cc2F)N1CC(F)F` (stereo partly drawn) [E 455, 6-(2-(2-(4-((1S,3R)-2-(2,2-difluoroethyl)-6-hydroxy-3-methyl-1,2,3,4-tetrahydroisoquinolin-1-yl)-3,5-difluorophenoxy)-7-azaspiro[3.5]nonan-7-yl)-2-oxoethyl)-2-(2,6-dioxopiperidin-3-yl)-6,7-dihydropyrrolo[3,4-f]isoindole-1,3(2H,5H)-dione], for which the DC50 was in the range of 10 to 100 nM. Consider `O=C1CCC(N2C(=O)c3cc4c(cc3C2=O)CC2(C4)CN(CC(=O)N3CC(Oc4ccc([C@@H]5c6ccc(O)cc6CC[C@@H]5c5ccccc5)cc4)C3)C2)C(=O)N1` (stereo partly drawn) [E 503, 2′-(2,6-dioxopiperidin-3-yl)-1-(2-(3-(4-((1R,2S)-6-hydroxy-2-phenyl-1,2,3,4-tetrahydronaphthalen-1-yl)phenoxy)azetidin-1-yl)-2-oxoethyl)-5′,7′-dihydro-1′H-spiro[azetidine-3,6′-cyclopenta[f]isoindole]-1′,3′(2′H)-dione], for which the DC50 is greater than 100 nM. As for `COc1c2c(cc3c1CN(C1CCC(=O)NC1=O)C3=O)CN(CC(=O)N1CCC3(CC1)CCN(c1cc(F)c([C@@H]4c5ccc(O)cc5C[C@@H](C)N4CC(F)F)c(F)c1)CC3)C2` (stereo partly drawn) [E 461, 3-(6-(2-(9-(4-((1S,3R)-2-(2,2-difluoroethyl)-6-hydroxy-3-methyl-1,2,3,4-tetrahydroisoquinolin-1-yl)-3,5-difluorophenyl)-3,9-diazaspiro[5.5]undecan-3-yl)-2-oxoethyl)-4-methoxy-1-oxo-3,5,6,7-tetrahydropyrrolo[3,4-f]isoindol-2(1H)-yl)piperidine-2,6-dione], the DC50 was less than 10 nM.

Take `C[C@@H]1Cc2cc(O)ccc2[C@@H](c2c(F)cc(N3CCC(CN4CCC(N5Cc6cc7c(cc6C5)C(=O)N(C5CCC(=O)NC5=O)C7=O)CC4)CC3)cc2F)N1CC(F)F` (stereo partly drawn) [E 466, 6-(1-((1-(4-((1S,3R)-2-(2,2-difluoroethyl)-6-hydroxy-3-methyl-1,2,3,4-tetrahydroisoquinolin-1-yl)-3,5-difluorophenyl)piperidin-4-yl)methyl)piperidin-4-yl)-2-(2,6-dioxopiperidin-3-yl)-6,7-dihydropyrrolo[3,4-f]isoindole-1,3(2H,5H)-dione]: the DC50 is greater than 100 nM. Still for that read-out and setting: in the case of `Cn1cc(-c2ccc3c(c2)CC[C@H](c2ccccc2)[C@@H]3c2ccc(N3CCC4(CCN(C(=O)CN5Cc6cc7c(cc6C5)C(=O)N(C5CCC(=O)NC5=O)C7=O)CC4)CC3)cc2)cn1` (stereo partly drawn) [E 509, 2-(2,6-dioxopiperidin-3-yl)-6-(2-(9-(4-((1R,2S)-6-(1-methyl-1H-pyrazol-4-yl)-2-phenyl-1,2,3,4-tetrahydronaphthalen-1-yl)phenyl)-3,9-diazaspiro[5.5]undecan-3-yl)-2-oxoethyl)-6,7-dihydropyrrolo[3,4-f]isoindole-1,3(2H,5H)-dione] it was greater than 100 nM. Same read-out and setting: in the case of `COc1c2c(cc3c1CN(C1CCC(=O)NC1=O)C3=O)CN(CC(=O)N1CC3(CCN(c4cc(F)c([C@@H]5c6ccc7[nH]ncc7c6C[C@@H](C)N5CC(F)F)c(F)c4)CC3)C1)C2` (stereo partly shown) [E 441] it was less than 10 nM.

The DC50 is the concentration giving 50% degradation.
